“Also recorded” adds a separate entry of the source. Read-outs that look alike come from different tables or passages of the source.
Experiments:
[1] = system: SARS-COV-2 US-WA1/2020 (NR-52281); assay: plaque assay of infectious virus released into culture medium, Vero cells; type: cell-based
[2] = system: SARS-COV-2 (2019n-COV/USA-WA1/2020); type: in vivo, K18-hACE2 mice; details: for reduction of viral load in lung: 7 days, Day 7
[3] = system: SARS-COV-2 Japan/TY7-503/2021-Brazil_P.1 (NR-54982); assay: qRT-PCR of viral genome copies released into culture medium, Vero cells; type: cell-based
[4] = system: SARS-COV-2 US-WA1/2020 (NR-52281); assay: as above; type: cell-based
[5] = system: six strains of SARS-COV-2; assay: qRT-PCR assay, summary over six strains and two cell types; type: cell-based
[6] = system: SARS-COV-2 Japan/TY7-503/2021-Brazil_P.1 (NR-54982); assay: plaque assay of infectious virus released into culture medium, Vero cells; type: cell-based
[7] = system: SARS-COV-2 US-WA1/2020 (NR-52281); assay: plaque assay of infectious virus released into culture medium, Calu-3 cells; type: cell-based
[8] = system: IL-6; IL-1a; IL-1B; TNFα; TGFβ; MCP-1; type: in vivo, K18-hACE2 mice; details: 7 days post infection
[9] = system: SARS-COV-2 (2019n-COV/USA-WA1/2020); type: in vivo, K18-hACE2 mice; details: for reduction of infectious virus recovered from lung tissue: 7 days, Day 7, P<0.001
[10] = system: SARS-COV-2 Japan/TY7-503/2021-Brazil_P.1 (NR-54982); assay: qRT-PCR of viral genome copies released into culture medium, Calu-3 cells; type: cell-based
[11] = system: SARS-COV-2 Japan/TY7-503/2021-Brazil_P.1 (NR-54982); assay: plaque assay of infectious virus released into culture medium, Calu-3 cells; type: cell-based
[12] = system: SARS-COV-2 (2019n-COV/USA-WA1/2020); type: in vivo, K18-hACE2 mice
[13] = system: six strains of SARS-COV-2; assay: plaque assay, summary over six strains and two cell types; type: cell-based
[14] = system: SARS-COV-2 US-WA1/2020 (NR-52281); assay: qRT-PCR of viral genome copies released into culture medium, Calu-3 cells; type: cell-based
[15] = Severe acute respiratory syndrome coronavirus 2, m.o.i 0.1, BIT225 added 1 hour pre-infection, 4 days post infection
[16] = 300 mg/kg twice daily, day 5 (Experiment 3) or Day 12 (Experiment 2), 11 mice
[17] = Experiment 1, 100 mg/kg or 300 mg/kg for 7 days, vs vehicle
[18] = Severe acute respiratory syndrome coronavirus 2, virus BR, m.o.i 0.1, BIT225 added 1 hour pre-infection, 4 days post infection
[19] = virus BR, log-logistic curve fit
[20] = Severe acute respiratory syndrome coronavirus 2, virus WA1, m.o.i 0.1, BIT225 added 1 hour pre-infection, 4 days post infection
[21] = virus WA1, log-logistic curve fit

Cn1cc(-c2cccc3cc(C(=O)NC(=N)N)ccc23)cn1 [BIT225, N-carbamimidoyl-5-(1-methyl-1H-pyrazol-4-yl)-2-naphthamide]
EC50 [1, 15]: 4.09 µM
Max. Response (d) ([1]; log-logistic curve fit): 6.40 log10
Slope (b) ([1]; log-logistic curve fit): 1.45
lung viral loads (qRT-PCR) [2, 16]: at or below the limits of detection
viral load in serum [2, 17]: significant reductions
reduction of viral load in lung ([2]; Experiment 1, 100 mg/kg twice daily, vs vehicle, P<0.001): approximately 2 log 10
reduction of viral load in lung ([2]; Experiment 1, 300 mg/kg twice daily, vs vehicle): approximately 3.5 log 10
EC50 [3, 18]: 4.03 µM
Max. Response (d) [3, 19]: 3.53 log10
Slope (b) [3, 19]: 1.13
EC50 [4, 20]: 2.53 µM
Max. Response (d) [4, 21]: 3.29 log10
Slope (b) [4, 21]: 1.79
EC50 ([5]; Severe acute respiratory syndrome coronavirus 2, read-out: EC50 estimates, range): 2.5 to 4.8 µM
EC50 ([5]; Severe acute respiratory syndrome coronavirus 2, qRT-PCR assay, mean over six strains and two cell types, read-out: EC50, mean): 3.7 µM
EC50 [6, 18]: 6.36 µM
Max. Response (d) [6, 19]: 6.39 log10
Slope (b) [6, 19]: 1.67
EC50 [7, 15]: 3.43 µM
Max. Response (d) ([7]; log-logistic curve fit): 3.38 log10
Slope (b) ([7]; log-logistic curve fit): 1.31
IL-6 level, statistically significant (P<0.05) lower than vehicle control ([8]; 100 mg/kg dose group): exception
mean and median cytokine concentrations relative to vehicle control group ([8]; high-dose BIT225 group (300 mg/kg)): less than half
end-of-treatment levels of IL-6, IL-1a, IL-1B, TNFα, TGFβ and MCP-1 ([8]; lung and serum, 100 or 300 mg/kg twice daily, vs vehicle control): reduced
lung plaque counts [9, 16]: < 200 mL⁻¹
infectious virus in serum [9, 17]: significant reductions
reduction of infectious virus recovered from lung tissue ([9]; Experiment 1, 100 mg/kg twice daily): approximately 2000 PFU/mL
reduction of infectious virus recovered from lung tissue ([9]; Experiment 1, 300 mg/kg twice daily): ~4000 PFU/mL
EC50 [10, 18]: 4.64 µM
Max. Response (d) [10, 19]: 2.53 log10
Slope (b) [10, 19]: 1.12
EC50 [11, 18]: 5.79 µM
Max. Response (d) [11, 19]: 3.39 log10
Slope (b) [11, 19]: 1.36
survival to day 5 (Experiment 3) or Day 12 (Experiment 2) ([12]; 11 mice, 300 mg/kg twice daily): all survived
difference in body weight changes between the two BIT225 dosing levels ([12]; Experiment 1, 100 mg/kg vs 300 mg/kg twice daily, 7 days): no significant difference
difference between group-mean body weight changes, vehicle lower than combined BIT225 groups ([12]; Experiment 1, day 5, P=0.01): 3.8%
difference between group-mean body weight changes, vehicle lower than combined BIT225 groups ([12]; Experiment 1, day 6, P=0.001): 6.4%
mice with body weights greater than their pre-infection weights ([12]; Experiment 1, day 7, 100 mg/kg or 300 mg/kg twice daily): all 10
difference between group-mean body weight changes, vehicle lower than combined BIT225 groups ([12]; Experiment 1, day 7, 95% CI [5.6-10.7], P=0.001): 8.1%
survival and weight gain to day 12 ([12]; Experiment 2, 300 mg/kg twice daily for 12 days, n=7, all vehicle mice died by day 9, P<0.001 log-rank, 300 mg/kg): all mice survived and continued to gain weight; also recorded: all seven mice in the BIT225 group survived
health and weight change to Day 5 ([12]; Experiment 3, 300 mg/kg twice daily, 5 days, n=4): remained healthy and gained weight to Day 5
survival, health and weight gain through day 12 ([12]; Experiment 4, 300 mg/kg twice daily starting 24 h post-infection, n=5, 300 mg/kg): remained healthy and continued gain weight as per age expectations through to day 12; also recorded: survived to Day 12
survival, health and weight gain through day 12 ([12]; Experiment 4, 300 mg/kg twice daily starting 24 h pre-infection, n=5, 300 mg/kg): remained healthy and continued gain weight as per age expectations through to day 12; also recorded: survived to Day 12
mice that died (day 11) ([12]; Experiment 4, 300 mg/kg twice daily starting 48 h post-infection, n=5, 300 mg/kg): One of the five; also recorded: one mouse
mice that continued to gain body weight ([12]; across three experiments, 12 hourly oral doses of BIT225 (100 or 300 mg/kg), intranasal): 21 out of 21
EC50 ([13]; Severe acute respiratory syndrome coronavirus 2, read-out: EC50, range): 3.4 to 7.9 µM
EC50 ([13]; Severe acute respiratory syndrome coronavirus 2, plaque assay, mean over six strains and two cell types, read-out: EC50, mean): 6.2 µM
EC50 [14, 20]: 2.55 µM
Max. Response (d) [14, 21]: 2.41 log10
Slope (b) [14, 21]: 1.38

From patent publication US20250009713A1 (priority 2021, published 2025)
